Target: T1, human TPH1 (Homo sapiens, UniProt P17752)
T1 sequence (P17752 1-444): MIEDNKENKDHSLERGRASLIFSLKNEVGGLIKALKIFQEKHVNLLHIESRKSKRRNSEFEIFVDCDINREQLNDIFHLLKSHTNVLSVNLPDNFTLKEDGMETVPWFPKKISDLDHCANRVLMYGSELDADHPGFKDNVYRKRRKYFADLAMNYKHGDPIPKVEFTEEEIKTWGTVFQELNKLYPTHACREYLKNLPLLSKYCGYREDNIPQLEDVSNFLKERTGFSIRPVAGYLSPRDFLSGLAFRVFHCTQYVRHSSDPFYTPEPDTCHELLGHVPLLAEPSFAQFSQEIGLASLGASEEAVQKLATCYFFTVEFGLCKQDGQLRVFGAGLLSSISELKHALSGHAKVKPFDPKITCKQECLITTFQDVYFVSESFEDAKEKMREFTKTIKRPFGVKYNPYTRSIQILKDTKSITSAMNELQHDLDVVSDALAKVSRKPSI
Assay: biochemical
Summary of the method: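 Inhibition is derived from 5-hydroxy-L-tryptophan fluorescence (540 nm emission, 300 nm excitation) after perchloric acid stop, relative to DMSO vehicle. Recombinant full-length human enzyme (40-80 nM) reacts with 40 μM tryptophan plus 100 μM methyltetrahydropterin, pH 7.6 Tris/DTT/catalase, 15° C, 60 min.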

| Structure (SMILES) | IC50 |
| --- | --- |
| Cc1ccc(C2c3c(nc4cc(C(F)(F)F)ccn34)CCN2C(=O)COc2ccc3ccccc3c2)cn1 (stereo not shown) [Example 3.38.1, 1-(1-(6-methylpyridin-3-yl)-7-(trifluoromethyl)-3,4-dihydroimidazo[1,2-a:5,4-c′]dipyridin-2(1H)-yl)-2-(naphthalen-2-yloxy)ethan-1-one] | 26 nM |
| Cc1cc(C2c3c(nc4cc(C(F)(F)F)ccn34)CCN2C(=O)COc2ccc3ccccc3c2)n(C)n1 (stereo not shown) [Example 3.40.1, 1-(1-(1,3-dimethyl-1H-pyrazol-5-yl)-7-(trifluoromethyl)-3,4-dihydroimidazo[1,2-a:5,4-c′]dipyridin-2(1H)-yl)-2-(naphthalen-2-yloxy)ethan-1-one] | 432 nM |
| O=C(COc1ccc2ccccc2c1)N1CCc2nc3cc(C(F)(F)F)ccn3c2C1c1cnn(-c2ccccc2)c1 (stereo not shown) [Example 3.41.1, 2-(naphthalen-2-yloxy)-1-(1-(1-phenyl-1H-pyrazol-4-yl)-7-(trifluoromethyl)-3,4-dihydroimidazo[1,2-a:5,4-c′]dipyridin-2(1H)-yl)ethan-1-one] | 328 nM |
| O=C(COc1ccc(CN2CCOCC2)cc1Cl)N1CCc2nc3cc(C(F)(F)F)ccn3c2C1c1cnn(-c2ccccc2)c1 (stereo not shown) [Example 3.41.2, 2-(2-chloro-4-(morpholinomethyl)phenoxy)-1-(1-(1-phenyl-1H-pyrazol-4-yl)-7-(trifluoromethyl)-3,4-dihydroimidazo[1,2-a:5,4-c′]dipyridin-2(1H)-yl)ethan-1-one] | 24 nM |
| Cc1c(CN2CCOCC2)ccc(OCC(=O)N2CCc3nc4cc(C(F)(F)F)ccn4c3C2c2cnn(-c3ccccc3)c2)c1C (stereo not shown) [Example 3.41.3, 2-(2,3-dimethyl-4-(morpholinomethyl)phenoxy)-1-(1-(1-phenyl-1H-pyrazol-4-yl)-7-(trifluoromethyl)-3,4-dihydroimidazo[1,2-a:5,4-c′]dipyridin-2(1H)-yl)ethan-1-one] | 68 nM |
| Cc1csc(C2c3c(nc4cc(C(F)(F)F)ccn34)CCN2C(=O)COc2ccc3ccccc3c2)n1 (stereo not shown) [Example 3.42.1, 1-(1-(4-methylthiazol-2-yl)-7-(trifluoromethyl)-3,4-dihydroimidazo[1,2-a:5,4-c′]dipyridin-2(1H)-yl)-2-(naphthalen-2-yloxy)ethan-1-one] | 260 nM |
| O=C(COc1ccc2ccccc2c1)N1CCc2nc3cc(C(F)(F)F)ccn3c2C1c1ncc2ccccn12 (stereo not shown) [Example 3.43.2, 1-(1-(imidazo[1,5-a]pyridin-3-yl)-7-(trifluoromethyl)-3,4-dihydroimidazo[1,2-a:5,4-c′]dipyridin-2(1H)-yl)-2-(naphthalen-2-yloxy)ethan-1-one] | 209 nM |
| O=C(COc1ccc2ccccc2c1)N1CCc2nc3cc(C(F)(F)F)ccn3c2C1c1nc2ccccc2s1 (stereo not shown) [Example 3.44.1, 1-(1-(benzo[d]thiazol-2-yl)-7-(trifluoromethyl)-3,4-dihydroimidazo[1,2-a:5,4-c′]dipyridin-2(1H)-yl)-2-(naphthalen-2-yloxy)ethan-1-one] | 76 nM |
| Cc1cc(C2c3c(nc4cc(C(F)(F)F)ccn34)CCN2C(=O)COc2ccc3ccccc3c2)no1 (stereo not shown) [Example 3.45.1, 1-(1-(5-methylisoxazol-3-yl)-7-(trifluoromethyl)-3,4-dihydroimidazo[1,2-a:5,4-c′]dipyridin-2(1H)-yl)-2-(naphthalen-2-yloxy)ethan-1-one] | 349 nM |
| O=C(COc1ccc2ccccc2c1)N1CCc2nc3cc(C(F)(F)F)ccn3c2C1c1cc(-c2ccccc2)on1 (stereo not shown) [Example 3.46.2, 2-(naphthalen-2-yloxy)-1-(1-(5-phenylisoxazol-3-yl)-7-(trifluoromethyl)-3,4-dihydroimidazo[1,2-a:5,4-c′]dipyridin-2(1H)-yl)ethan-1-one] | 206 nM |
| O=C(COc1ccc2ccccc2c1)N1CCc2nc3cc(C(F)(F)F)ccn3c2C1c1cc(-c2ccc(F)cc2)on1 (stereo not shown) [Example 3.47.1, 1-(1-(5-(4-fluorophenyl)isoxazol-3-yl)-7-(trifluoromethyl)-3,4-dihydroimidazo[1,2-a:5,4-c′]dipyridin-2(1H)-yl)-2-(naphthalen-2-yloxy)ethan-1-one] | 368 nM |
| O=C(COc1ccc2ccccc2c1)N1CCc2nc3cc(C(F)(F)F)ccn3c2C1c1cc2cccnc2s1 (stereo not shown) [Example 3.49.1, 2-(naphthalen-2-yloxy)-1-(1-(thieno[2,3-b]pyridin-2-yl)-7-(trifluoromethyl)-3,4-dihydroimidazo[1,2-a:5,4-c′]dipyridin-2(1H)-yl)ethan-1-one] | 47 nM |
| Cc1ccc(C2c3c(nc4cc(C(F)(F)F)ccn34)CCN2C(=O)COc2ccc3ccccc3c2)nc1 (stereo not shown) [Example 3.50.1, 1-(1-(5-methylpyridin-2-yl)-7-(trifluoromethyl)-3,4-dihydroimidazo[1,2-a:5,4-c′]dipyridin-2(1H)-yl)-2-(naphthalen-2-yloxy)ethan-1-one] | 58 nM |
| Cc1ccc(C2c3c(nc4cc(C(F)(F)F)ccn34)CCN2C(=O)COc2cc(-c3ccccc3)nn2C)nc1 (stereo not shown) [Example 3.50.3, 2-((1-methyl-3-phenyl-1H-pyrazol-5-yl)oxy)-1-(1-(5-methylpyridin-2-yl)-7-(trifluoromethyl)-3,4-dihydroimidazo[1,2-a:5,4-c′]dipyridin-2(1H)-yl)ethan-1-one] | 468 nM |
| Cc1noc(C)c1C1c2c(nc3cc(C(F)(F)F)ccn23)CCN1C(=O)COc1ccc2ccccc2c1 (stereo not shown) [Example 3.51.1, 1-(1-(3,5-dimethylisoxazol-4-yl)-7-(trifluoromethyl)-3,4-dihydroimidazo[1,2-a:5,4-c′]dipyridin-2(1H)-yl)-2-(naphthalen-2-yloxy)ethan-1-one] | 87 nM |

Further lines, results first:

| IC50 | Structure (SMILES) |
| --- | --- |
| 92 nM | Cc1ccc(C2c3c(nc4cc(C(F)(F)F)ccn34)CCN2C(=O)COc2ccc(CN3CCOCC3)cc2Cl)cn1 (stereo not shown) [Example 3.38.2, 2-(2-chloro-4-(morpholinomethyl)phenoxy)-1-(1-(6-methylpyridin-3-yl)-7-(trifluoromethyl)-3,4-dihydroimidazo[1,2-a:5,4-c′]dipyridin-2(1H)-yl)ethan-1-one] |
| 46 nM | COc1cc(C)c(C2c3c(nc4cc(C(F)(F)F)ccn34)CCN2C(=O)COc2ccc(CN3CCOCC3)cc2Cl)cn1 (stereo not shown) [Example 3.39.1, 2-(2-chloro-4-(morpholinomethyl)phenoxy)-1-(1-(6-methoxy-4-methylpyridin-3-yl)-7-(trifluoromethyl)-3,4-dihydroimidazo[1,2-a:5,4-c′]dipyridin-2(1H)-yl)ethan-1-one] |
| 427 nM | Cc1csc(C2c3c(nc4cc(C(F)(F)F)ccn34)CCN2C(=O)COc2ccc(CN3CCOCC3)cc2Cl)n1 (stereo not shown) [Example 3.42.2, 2-(2-chloro-4-(morpholinomethyl)phenoxy)-1-(1-(4-methylthiazol-2-yl)-7-(trifluoromethyl)-3,4-dihydroimidazo[1,2-a:5,4-c′]dipyridin-2(1H)-yl)ethan-1-one] |
| 130 nM | O=C(COc1ccc(CN2CCOCC2)cc1Cl)N1CCc2nc3cc(C(F)(F)F)ccn3c2C1c1ncc2ccccn12 (stereo not shown) [Example 3.43.1, 2-(2-chloro-4-(morpholinomethyl)phenoxy)-1-(1-(imidazo[1,5-a]pyridin-3-yl)-7-(trifluoromethyl)-3,4-dihydroimidazo[1,2-a:5,4-c′]dipyridin-2(1H)-yl)ethan-1-one] |
| 23 nM | O=C(COc1ccc(CN2CCOCC2)cc1Cl)N1CCc2nc3cc(C(F)(F)F)ccn3c2C1c1nc2ccccc2s1 (stereo not shown) [Example 3.44.2, 1-(1-(benzo[d]thiazol-2-yl)-7-(trifluoromethyl)-3,4-dihydroimidazo[1,2-a:5,4-c′]dipyridin-2(1H)-yl)-2-(2-chloro-4-(morpholinomethyl)phenoxy)ethan-1-one] |
| 22 nM | O=C(COc1ccc(CN2CCOCC2)cc1Cl)N1CCc2nc3cc(C(F)(F)F)ccn3c2C1c1cc(-c2ccccc2)on1 (stereo not shown) [Example 3.46.1, 2-(2-chloro-4-(morpholinomethyl)phenoxy)-1-(1-(5-phenylisoxazol-3-yl)-7-(trifluoromethyl)-3,4-dihydroimidazo[1,2-a:5,4-c′]dipyridin-2(1H)-yl)ethan-1-one] |
| 41 nM | O=C(COc1ccc(CN2CCOCC2)cc1Cl)N1CCc2nc3cc(C(F)(F)F)ccn3c2C1c1cc(-c2ccc(F)cc2)on1 (stereo not shown) [Example 3.47.2, 2-(2-chloro-4-(morpholinomethyl)phenoxy)-1-(1-(5-(4-fluorophenyl)isoxazol-3-yl)-7-(trifluoromethyl)-3,4-dihydroimidazo[1,2-a:5,4-c′]dipyridin-2(1H)-yl)ethan-1-one] |
| 214 nM | O=C(COc1ccc(CN2CCOCC2)cc1Cl)N1CCc2nc3cc(C(F)(F)F)ccn3c2C1c1ncn2ccccc12 (stereo not shown) [Example 3.48.1, 2-(2-chloro-4-(morpholinomethyl)phenoxy)-1-(1-(imidazo[1,5-a]pyridin-1-yl)-7-(trifluoromethyl)-3,4-dihydroimidazo[1,2-a:5,4-c′]dipyridin-2(1H)-yl)ethan-1-one] |
| 13 nM | O=C(COc1ccc(CN2CCOCC2)cc1Cl)N1CCc2nc3cc(C(F)(F)F)ccn3c2C1c1cc2cccnc2s1 (stereo not shown) [Example 3.49.2, 2-(2-chloro-4-(morpholinomethyl)phenoxy)-1-(1-(thieno[2,3-b]pyridin-2-yl)-7-(trifluoromethyl)-3,4-dihydroimidazo[1,2-a:5,4-c′]dipyridin-2(1H)-yl)ethan-1-one] |
| 100 nM | Cc1ccc(C2c3c(nc4cc(C(F)(F)F)ccn34)CCN2C(=O)COc2ccc(CN3CCOCC3)cc2Cl)nc1 (stereo not shown) [Example 3.50.2, 2-(2-chloro-4-(morpholinomethyl)phenoxy)-1-(1-(5-methylpyridin-2-yl)-7-(trifluoromethyl)-3,4-dihydroimidazo[1,2-a:5,4-c′]dipyridin-2(1H)-yl)ethan-1-one] |
